Reference: article PMC7796031, “Studies of Coumarin Derivatives for Constitutive Androstane Receptor (CAR) Activation” (Molecules, 2020)

How the values were obtained:
[1] = system: phosphoenopyruvate carboxykinse (PEPCK) mRNA expression; assay: PEPCK mRNA expression induced by dexamethasone and 8-bromo-cAMP in H4IIE cells; assay type: cell-based, rat; settings: dexamethasone (500 nM) + 8-bromo-cAMP, test compounds as printed
Protocol: S21 Effects of scoparone, 50 (PLH), and 6 on phosphoenopyruvate carboxykinse (PEPCK) mRNA expression induced by dexamethasone and 8-bromo-cAMP.
A quantified result of dexamethasone (500 nM) and 8-bromo-cAMP (100µM) induced PEPCK mRNA expression in the presence or absence of scoparone, 50 (PLH) and 6 at 0.78 µM was shown. Insulin (10 nM) was served as an experimental control. Quantified data was presented as mean ± S.E.M. (n = 4). **P < 0.01 and ***P < 0.001 when compared with induction control (None).
PEPCK mRNA could be induced by dexamethasone and 8-bromo-cAMP after 3hr. The presence of insulin […]
Scoparone, at 0.78 µM, can suppress PEPCK
In contrast, both 50 (PLH) and 6 could also suppress PEPCK
Cell culture: The rat H4IIE cells were cultured in Dulbecco’s Modified Eagle’sMedium (DMEM) containing 1 g/L glucose, 5% (v/v) fetal calf serum (FBS) and 1% (v/v) antibiotics (100 U/mL penicillin and 0.1 g/L streptomycin). Cultured cells were maintained at 37 ◦C in an atmosphere of 5% CO2 and 95% air.
The measurement of PEPCK gene expression: H4IIE cells were seeded into 6 cm dish and allowed for the attachment. After serum starvation overnight, cells were treated with various conditions described in the figure legend. After treatment, total RNA of each treatment was extracted using TRI-reagent according to the manufacturer’s instructions. The pelleted RNA was dissolved in distilled water, quantified with NanoDrop™ 1000 Spectrophotometer (Thermo Fisher Scientific, USA) and stored at −70 ◦C. Total RNA (1µg) was reverse transcribed to generate templates. 50 ng of cDNA was employed for further PCR. The sequences of […]
primers for β-actin: 5’-[…]- 3’ and 5’-[…]-3’ and […]
(1 picture or pasted object on this page, not shown here)

MRP2 = assay: Protein expression of MRP2 (western blot); assay type: cell-based, human
Protocol: Figure 7 The protein expressions of MRP2 after 6,7-diprenoxycoumarin (50) treatment. Hep3B cell (1 × 10^6) were treated with 50 (5, 10, 20 and 40 μM) for 24 h. Treated cell lysates were prepared as described in the Methods section and the expression of MRP2 was analyzed by western blot.
1 × 10^6 cells were seeded in a 10 cm plate, incubated at 37 °C for overnight and treated with various concentrations of compounds for the indicated times. After incubation, the culture medium was removed and washed twice with 2 mL ice-cold 1× PBS. Three hundred μL of protein lysis buffer (150 mM NaCl, 50 mM Tris-HCl (pH 7.4), 1% SDS, 1% Triton X-100, 1 mM PMSF) was added into each plate, scraped with a rubber policeman, collected into a premarked microtube and the incubated in ice for 1 h, sonicated by Ultrasonic Cell Disruptor for three time at 5 s each. The cell lysated was cleared by centrifugation at 12,000× g for 15 min at 4 °C. Supernatants were transferred into a fresh marked microtube and stored at −20 °C for future use.
Protein concentration of each sample was determined using a BCA Protein Assay Kit (Pirece®, Thermo Scientific). Different percentages of SDS-PAGE gels were prepared according to the molecular size of proteins of interest. After complete polymerization of stacking gels, each sample with equal amount of total protein was separated in polyacrylamide gels (stacking gel: 50 v, 60 min; separating gel: 100 v, 60 min). After separating, wet-transfer method was utilized to transfer proteins onto the PVDF membrane. The gels were assembled in the transfer sandwich and put in a transfer tank filled with transfer buffer (25 mM glycine, 0.15% ethanolamine, 20% methanol). The electro-transfer was performed at the voltage of 100 volt for 80 min at 4 °C. After transfer, PVDF-membrane was blocked with 5% BSA in 1× TBS-Tween at room temperature for 1 h. Membrane was washed with 10 mL 1× TBS-Tween three times and incubated with primary antibodies overnight at 4 °C with gentle agitation. […] The emitted fluorescence from the membrane was caught on a LAS-4000 biomolecule imager (FUJI.).

SMILES: COc1cc2ccc(=O)oc2cc1OC [Compound 39, scoparone]
- suppression of PEPCK mRNA induction [1]: level similar to insulin
- protein expression of MRP2 (CAR downstream gene) (MRP2; Figure 2, after scoparone or CITCO treatment): upregulated

SMILES: CC(C)=CCOc1cc2ccc(=O)oc2cc1OCC=C(C)C [Compound 50, 6,7-diprenoxycoumarin]
- suppression of PEPCK mRNA induction [1]: less potent
- protein expression level of MRP2 (MRP2; Hep3B, 5, 10, 20 and 40 μM, 24 h): enhanced
